Measured values taken from ChEMBL document CHEMBL1201862, “PubChem BioAssay data set” (2004).
Active and inactive are the calls of the source. Where a SMILES comes first, the peptide text is derived from it. The star is where a group is joined. Boc = CC(C)(C)OC(=O)*; OtBu = CC(C)(C)O*

Assays:
[1] = target: T1, Heat shock factor protein 1 (Mus musculus, UniProt P38532); experiment: enhancement of HSF1-driven luciferase signal – cell-based, NIH3T3, luminescence, dose retest, confirmation (AID 435004); type: functional;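 note: stress induced by proteasome inhibitor MG132 added 30 min after compound; luciferase reporter driven by HSF1 response element in NIH3T3 cells; actives raise luminescence as potentiators of the MG132 stress response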
T1 sequence (P38532 whole entry): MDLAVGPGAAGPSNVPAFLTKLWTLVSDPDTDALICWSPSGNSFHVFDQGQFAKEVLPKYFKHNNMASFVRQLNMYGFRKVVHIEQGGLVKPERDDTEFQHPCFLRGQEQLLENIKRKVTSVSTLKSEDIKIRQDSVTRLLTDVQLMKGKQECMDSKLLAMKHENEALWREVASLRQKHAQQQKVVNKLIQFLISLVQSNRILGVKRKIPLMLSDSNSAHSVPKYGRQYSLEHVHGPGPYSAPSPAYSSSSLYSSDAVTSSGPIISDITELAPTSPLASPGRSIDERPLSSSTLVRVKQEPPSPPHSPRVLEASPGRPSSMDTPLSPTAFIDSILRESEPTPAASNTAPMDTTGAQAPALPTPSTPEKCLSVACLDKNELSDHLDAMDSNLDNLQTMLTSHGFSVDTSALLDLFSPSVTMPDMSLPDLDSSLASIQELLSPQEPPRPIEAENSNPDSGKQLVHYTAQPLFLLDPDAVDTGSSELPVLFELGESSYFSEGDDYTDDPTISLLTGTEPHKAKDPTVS

[2] = target: T2, Polyadenylate-binding protein 1 (Homo sapiens, UniProt P11940); experiment: MLLE binding blockers, Cy5 peptide tracer – biochemical, fluorescence polarization, Cy5-PAM2 peptide, secondary, miRNA deadenylation inhibitor project, dose response (AID 602260); type: functional; settings: read-out: IC50_Mean
T2 sequence (P11940 whole entry, the tested form may be a part): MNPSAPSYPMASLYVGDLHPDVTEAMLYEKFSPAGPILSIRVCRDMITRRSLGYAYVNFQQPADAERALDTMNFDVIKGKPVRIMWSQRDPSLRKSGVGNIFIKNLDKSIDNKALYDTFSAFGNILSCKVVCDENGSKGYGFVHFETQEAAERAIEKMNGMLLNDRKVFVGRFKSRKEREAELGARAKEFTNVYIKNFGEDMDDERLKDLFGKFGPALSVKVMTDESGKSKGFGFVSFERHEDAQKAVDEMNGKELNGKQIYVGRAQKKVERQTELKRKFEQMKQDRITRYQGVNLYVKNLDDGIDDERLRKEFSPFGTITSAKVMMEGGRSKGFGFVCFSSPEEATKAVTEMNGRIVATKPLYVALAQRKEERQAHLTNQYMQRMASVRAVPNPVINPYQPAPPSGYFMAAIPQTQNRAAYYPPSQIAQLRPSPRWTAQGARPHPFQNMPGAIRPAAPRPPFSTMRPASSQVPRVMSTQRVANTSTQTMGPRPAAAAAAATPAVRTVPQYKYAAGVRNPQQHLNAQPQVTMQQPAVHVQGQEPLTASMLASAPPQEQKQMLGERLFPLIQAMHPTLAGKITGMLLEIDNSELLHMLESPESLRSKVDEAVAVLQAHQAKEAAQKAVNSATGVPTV

[3] = target: T2, Polyadenylate-binding protein 1; experiment: MLLE domain peptide-binding blockers, IC50 – biochemical, fluorescence polarization, FITC-PAM2 peptide, dose response (AID 602259); type: functional; settings: read-out: IC50_Mean
[4] = target: T3, Rac GTPase-activating protein 1 (Homo sapiens, UniProt Q9H0H5); experiment: blockers of MgcRacGAP-driven Rac1 GTP hydrolysis – biochemical, ADP Hunter fluorescence, primary and confirmatory, confirmation (AID 624330); type: functional
T3 sequence (Q9H0H5 whole entry): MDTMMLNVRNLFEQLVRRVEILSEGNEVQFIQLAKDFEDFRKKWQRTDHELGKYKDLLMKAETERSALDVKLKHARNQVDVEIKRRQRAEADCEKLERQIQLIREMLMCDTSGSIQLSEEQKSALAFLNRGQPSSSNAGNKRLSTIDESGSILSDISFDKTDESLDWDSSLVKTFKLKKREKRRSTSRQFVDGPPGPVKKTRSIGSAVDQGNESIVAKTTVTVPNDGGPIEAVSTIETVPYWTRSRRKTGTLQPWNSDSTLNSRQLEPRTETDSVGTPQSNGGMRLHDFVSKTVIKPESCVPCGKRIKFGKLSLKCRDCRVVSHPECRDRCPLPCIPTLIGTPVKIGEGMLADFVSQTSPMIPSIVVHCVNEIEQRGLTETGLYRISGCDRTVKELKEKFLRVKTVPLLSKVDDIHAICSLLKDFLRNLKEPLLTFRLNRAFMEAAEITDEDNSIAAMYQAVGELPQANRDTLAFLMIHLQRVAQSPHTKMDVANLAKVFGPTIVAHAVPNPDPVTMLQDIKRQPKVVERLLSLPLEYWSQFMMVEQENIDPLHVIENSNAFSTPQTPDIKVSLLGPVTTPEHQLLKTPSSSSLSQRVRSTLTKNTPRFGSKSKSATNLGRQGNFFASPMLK

INS1 = experiment: INS-1E survival protection against cytokine death – cell-based, luminescence, retest, dose response (AID 449756); type: functional; settings: Rattus norvegicus;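 note: cell death triggered by IL-1 beta plus TNF-alpha plus IFN-gamma mixture; protective hits raise ATP signal compared with cytokine alone wells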
Cytochrome P450 2C19 = Cytochrome P450 2C19 (Homo sapiens, UniProt P33261); experiment: Cytochrome panel assay with activity outcomes. Panel member name: p450-cyp2c19 Compounds with AC50 equal or less than 10 uM are considered active; type: functional; settings: read-out: AC50
Chain of Cytochrome P450 2C19 (P33261 whole entry): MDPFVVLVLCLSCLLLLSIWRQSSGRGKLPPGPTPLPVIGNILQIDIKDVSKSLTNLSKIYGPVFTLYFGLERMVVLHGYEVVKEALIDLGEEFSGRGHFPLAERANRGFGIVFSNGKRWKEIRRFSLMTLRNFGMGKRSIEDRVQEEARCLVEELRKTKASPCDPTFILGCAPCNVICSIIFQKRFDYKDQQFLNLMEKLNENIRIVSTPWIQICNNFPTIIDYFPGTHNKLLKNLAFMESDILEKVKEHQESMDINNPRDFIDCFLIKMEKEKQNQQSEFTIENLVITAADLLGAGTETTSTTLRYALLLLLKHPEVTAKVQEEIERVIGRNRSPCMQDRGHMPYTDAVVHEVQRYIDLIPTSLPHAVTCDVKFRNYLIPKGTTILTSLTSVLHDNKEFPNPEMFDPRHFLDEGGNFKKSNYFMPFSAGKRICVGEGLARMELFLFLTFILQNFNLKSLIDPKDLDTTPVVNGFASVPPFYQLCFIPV

Cytochrome P450 3A4 = Cytochrome P450 3A4 (Homo sapiens, UniProt P08684);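 note: CYP3A4 tested as one member of a cytochrome P450 panel screen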
Chain of Cytochrome P450 3A4 (P08684 whole entry): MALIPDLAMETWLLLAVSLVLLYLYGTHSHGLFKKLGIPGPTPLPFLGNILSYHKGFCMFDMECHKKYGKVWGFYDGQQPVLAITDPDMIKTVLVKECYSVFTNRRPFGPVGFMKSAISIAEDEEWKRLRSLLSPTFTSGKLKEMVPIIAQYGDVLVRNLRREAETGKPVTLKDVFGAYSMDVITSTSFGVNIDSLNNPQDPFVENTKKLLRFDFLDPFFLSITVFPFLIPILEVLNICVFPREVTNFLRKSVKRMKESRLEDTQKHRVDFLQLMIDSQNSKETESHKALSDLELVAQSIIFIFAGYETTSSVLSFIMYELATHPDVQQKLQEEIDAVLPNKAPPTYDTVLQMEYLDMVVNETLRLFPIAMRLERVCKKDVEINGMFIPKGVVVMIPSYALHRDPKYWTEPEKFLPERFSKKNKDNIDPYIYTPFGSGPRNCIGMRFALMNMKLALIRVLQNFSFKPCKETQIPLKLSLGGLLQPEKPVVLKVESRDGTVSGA

Cytochrome P450 1A2 = target: T4, Cytochrome P450 1A2 (Homo sapiens, UniProt P05177);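 note: PubChem cytochrome P450 panel assay, CYP1A2 panel member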
T4 sequence (P05177 whole entry): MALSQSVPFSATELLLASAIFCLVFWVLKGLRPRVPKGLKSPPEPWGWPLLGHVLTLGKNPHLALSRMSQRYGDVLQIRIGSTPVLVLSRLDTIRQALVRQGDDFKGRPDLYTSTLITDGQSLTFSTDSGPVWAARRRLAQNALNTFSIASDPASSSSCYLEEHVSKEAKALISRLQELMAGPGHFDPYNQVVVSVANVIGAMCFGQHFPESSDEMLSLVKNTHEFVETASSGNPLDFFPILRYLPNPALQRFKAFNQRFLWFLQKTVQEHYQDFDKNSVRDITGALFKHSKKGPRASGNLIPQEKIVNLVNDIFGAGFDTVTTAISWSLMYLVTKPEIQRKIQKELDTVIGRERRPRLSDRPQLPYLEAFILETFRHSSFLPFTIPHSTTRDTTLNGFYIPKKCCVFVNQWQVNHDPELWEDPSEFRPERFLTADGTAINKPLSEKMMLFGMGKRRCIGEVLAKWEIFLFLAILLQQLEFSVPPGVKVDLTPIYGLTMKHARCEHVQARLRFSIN

Streptococcus = experiment: GAS UMAA2166 growth inhibition – luminescence, BacTiterGlo, counter-screen for streptokinase expression inhibitor project, dose response (AID 1915); type: functional, organism-based;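 note: potency for reduction of bacterial viability or growth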
[5] = test system: Streptococcus sp. 'group A'; experiment: Streptococcus pyogenes SK(-)GAS viability under kanamycin – luminescence, BacTiterGlo, confirmation, counter-screen for streptokinase expression inhibitor project, dose response (AID 1900); type: functional, organism-based
Streptokinase A = target: T5, Streptokinase A (Streptococcus pyogenes serotype M1, UniProt P10520); experiment: viability-normalized secreted streptokinase activity reduction – plasminogen activation absorbance, OD405, dose response (AID 1914); type: functional, Streptococcus pyogenes M1 GAS;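 note: secreted streptokinase activity via plasminogen activation per viability signal from cell pellet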
T5 sequence (P10520 whole entry): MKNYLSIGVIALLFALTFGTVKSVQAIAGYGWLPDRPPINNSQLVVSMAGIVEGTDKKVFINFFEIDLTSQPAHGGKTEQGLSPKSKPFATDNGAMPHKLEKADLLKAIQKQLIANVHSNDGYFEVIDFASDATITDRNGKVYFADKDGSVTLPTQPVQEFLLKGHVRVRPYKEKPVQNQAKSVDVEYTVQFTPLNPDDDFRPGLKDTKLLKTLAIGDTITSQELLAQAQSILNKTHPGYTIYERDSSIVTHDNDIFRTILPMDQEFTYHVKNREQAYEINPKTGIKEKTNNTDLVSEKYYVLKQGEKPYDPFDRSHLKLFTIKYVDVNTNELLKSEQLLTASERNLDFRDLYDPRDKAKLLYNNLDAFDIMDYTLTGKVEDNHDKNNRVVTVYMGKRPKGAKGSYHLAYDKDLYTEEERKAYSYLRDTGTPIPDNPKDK

[6] = Luminescence Cell-Based Dose Retest to Confirm Inhibitors of Cancer Stem Cells. [Related pubchem assays (depositor defined):AID2717, AID2721]; type: functional; settings: Homo sapiens

## N#CC(CO)(Cc1ccc(OC(F)F)cc1)c1nc2ccccc2[nH]1 (stereo not given)
[1]
  EC50: > 260 µM (inactive)

## COc1ccc(CCNC(=O)c2sc(=S)n(C)c2N)cc1
[2]
  IC50: > 66 µM (inactive)
[3]
  IC50: > 66 µM (inactive)

## O=C(Cc1ccc([N+](=O)[O-])cc1)N1N=C(C2CC2)CC1(O)C(F)(F)F (stereo not given)
[1]
  EC50: > 260 µM (inactive)

## COc1ccccc1NC(=O)Cc1csc(N=C(S)Nc2ccccc2)n1
[2]
  IC50: > 66 µM (inactive)
[3]
  IC50: > 66 µM (inactive)

## CCN(CC)C(=O)Oc1ccc(Br)cc1C(=O)Nc1ccc(F)cc1F
[1]
  EC50: > 260 µM (inactive)

## Cc1ccc(-c2cc(C(F)(F)F)c(C#N)c(SCC(=O)O)n2)cc1
[1]
  EC50: > 260 µM (inconclusive)

## CN(C(=O)CCN1C(=O)/C(=C/c2ccccc2F)SC1=S)C1CCS(=O)(=O)C1 (stereo not given)
[2]
  IC50: > 66 µM (inactive)
[3]
  IC50: > 66 µM (inactive)

## Cn1c(SCc2ccccc2C#N)nc2ccccc2c1=O
[1]
  EC50: > 260 µM (inactive)

## CC(C)[C@H](N[C@@H](C)c1ccccc1)c1c(O)ccc2ccccc12
[4]
  IC50: 16.8 µM (active)

## Cc1ccc(OC(=O)c2ccc(C)c(C)c2)cn1
[1]
  EC50: > 260 µM (inactive)

## COc1ccc2cc(C(c3nnnn3C3CCCC3)N3CCc4ccccc4C3)c(O)nc2c1 (stereo not given)
[2]
  IC50: > 66 µM (inactive)
[3]
  IC50: > 66 µM (inactive)

## CCOCCCN=C(S)N1CCN(Cc2ccc3c(c2)OCO3)CC1
[4]
  IC50: 152 µM (active)

## Nc1cc(Br)c(N)c(Br)c1
[4]
  IC50: 13.5 µM (active)

## O=C(NC1CCCC1)c1cc(COc2ccc3ncccc3c2)on1
INS1
  AC50: 3.29 µM (active)

## Cc1cc(Cl)ccc1N=C(S)NC(C)(C)C
[2]
  IC50: > 66 µM (inactive)
[3]
  IC50: > 66 µM (inactive)

## Cc1ccc(C(C)C)c(OCC(O)CN2CCc3ccccc3C2)c1 (stereo not given)
INS1
  AC50: 7.17 µM (active)

## O=[N+]([O-])c1ccc(N2CCCCCC2)c([N+](=O)[O-])c1
[1]
  EC50: > 260 µM (inactive)

## Cn1c(=O)[nH]c(=O)c2c1nc(S)n2Cc1ccccc1
[4]
  IC50: 26.9 µM (active)

## CCOc1cc(NC(=O)c2ccc(OC)cc2)c(OCC)cc1N=C(S)Nc1ccccc1
Cytochrome P450 2C19
  AC50: 2.51 µM (inconclusive)
Cytochrome P450 3A4
  AC50: 14.1 µM (inconclusive)
Cytochrome P450 1A2
  AC50: 7.08 µM (inconclusive)

## COc1cc(CN2CCC(C(=O)N3CCCC(C)C3)CC2)cc(Br)c1O (stereo not given)
[4]
  IC50: 191 µM (active)

## Cc1cc(C)nc(SCNC(=O)c2ccccc2)n1
[2]
  IC50: > 66 µM (inactive)
[3]
  IC50: > 66 µM (inactive)

## Cc1ccc2cc(C=C(C#N)C#N)c(Cl)nc2c1
[2]
  IC50: 44.8 µM (inactive)
[3]
  IC50: 28 µM (inactive)

## Cc1nc(SCC(=O)c2ccccc2)c(C#N)c(-c2ccco2)c1C(=O)NCc1ccco1
[1]
  EC50: 99.7 µM (active)

## COc1cc(-c2nnn(CC#N)n2)ccc1OCc1ccccc1
[1]
  EC50: 90.9 µM (active)

## CC1SC(c2ccc(Cl)cc2)NC1=O (stereo not given)
[1]
  EC50: > 260 µM (inactive)

## CCc1ccc(NC(=O)CSC2=C(C#N)C(c3ccc4c(c3)OCO4)CC(=O)N2)cc1 (stereo not given)
[1]
  EC50: > 260 µM (inactive)

## CN(C)c1ccc(NC(=O)COC(=O)c2ccc3c(c2)OCO3)cc1
[4]
  IC50: 63.3 µM (active)

## CC1CC(=O)N(c2ccc(Br)cc2)C(=O)C1
INS1
  AC50: > 260 µM (inactive)
[1]
  EC50: > 260 µM (inactive)

## O=C(CNS(=O)(=O)c1ccc(Br)s1)NCc1ccccc1
[1]
  EC50: > 260 µM (inactive)

## O=C(O)CCCC(=O)Nc1ccc(C(=O)NCc2cccnc2)cc1
INS1
  AC50: 2.39 µM (active)

## Cc1nc(N)sc1-c1ccccc1
[4]
  IC50: 71.9 µM (active)

## O=C(CCN1CCC2CCC(C2)C1)c1ccccc1 (stereo not given)
[2]
  IC50: > 66 µM (inactive)
[3]
  IC50: > 66 µM (inactive)

## Cc1ccc(-c2ccc(/C=N/NC(=S)Nc3ccccc3)o2)cc1[N+](=O)[O-]
[2]
  IC50: > 66 µM (inactive)
[3]
  IC50: > 66 µM (inactive)
Cytochrome P450 1A2
  AC50: 3.55 µM (inconclusive)

## C/C(=N\NC(=S)Nc1cccc(C)c1)c1cc2ccccc2o1
Streptococcus
  EC50: > 150 µM (not active)
[2]
  IC50: > 66 µM (inactive)
[3]
  IC50: > 66 µM (inactive)
[5]
  EC50: 3.44 µM (active)
Streptokinase A
  EC50: > 150 µM (not active)

## Cc1cccc(NC2=C/C(=N/S(=O)(=O)c3cccs3)c3ccccc3C2=O)c1
INS1
  AC50: 0.803 µM (active)
[6]
  AC50: 0.835 µM (active)

## Cc1nnc(N/N=C/c2cc([N+](=O)[O-])c(N3CCC(C)CC3)cc2N2CCC(C)CC2)n1N
INS1
  AC50: 2.92 µM (active)

## COC(=O)C(Cc1ccc(O)cc1)NC(=O)C(CC(=O)OC(C)(C)C)NC(=O)OC(C)(C)C (stereo not given) (Boc-Asp(OtBu)-Tyr-OMe; configuration not given here)
[1]
  EC50: > 260 µM (inactive)
